Several values for one entry are separate records, joined by “and”; a condition that tells them apart may be missing. Identical values can stand only once. Counter-ions that a name gives are not always drawn. Like-named read-outs stand apart in the source and are kept apart here.
Test: Ocular tissue concentrations (aqueous humor, vitreous humor, iris, retina, choroid, cornea) after topical ocular, subcutaneous and intravitreal administration
Format: in vivo, New Zealand White rabbits
Conditions: for Average Peak Concentration, Vitreous Humor: solution
Description: To measure the concentration of Compound 1 in plasma and ocular tissues following topical ocular, subcutaneous, and intravitreal administration, New Zealand White rabbits were administered Compound 1, and plasma and ocular samples were collected at pre-determined time points. Compound 1 formulations were prepared fresh on each day of dosing.
Ocular tissue samples from both eyes of each animal were collected and weights were recorded. Plasma and ocular tissue sample concentrations of Compound 1 were determined by LC-MS/MS.
New Zealand White rabbits weighing 2.5 to 3.5 kg were used on this study. Rabbits were housed one per cage. Animals were not fasted and only healthy animals with no ocular illness were used. Two rabbits per group were sacrificed at each of four ocular tissue sampling time points for a total of eight rabbits per group.
Animals were anesthetized for ocular (topical) and intravitreal dosing following the 12IA7 IACUC protocol. Each rabbit received a bolus dose of test formulation either via topical ocular administration 3 times daily on Days 1 and 2 (at 0, 6, and 12 hours), and once on Day 3 (at 0 hours) into both eyes; via intravitreal administration into both eyes once on Day 1 (at 0 hours); or via subcutaneous administration 2 times daily on Days 1 and 2 (at 0 and 8 hours) and once daily on Day 3 (at 0 hours). Doses were given within an approximately 1 hour window each day where applicable.
On Day 1, for intravitreal administration, or on Day 3, for topical ocular and subcutaneous administration, at the appropriate ocular tissue collection time points, animals were euthanized and both eyes were enucleated immediately. Following enucleation, each eye was rinsed with phosphate-buffered saline. Ocular tissue samples from both eyes of each animal were collected at predetermined time points and weights were recorded. All the samples were frozen immediately on dry ice, and stored at −60° C. to −80° C. pending bioanalysis.
An LC-MS/MS method was developed for the determination of Compound 1 in rabbit aqueous tissues (plasma, aqueous and vitreous humor) and solid ocular tissue samples. A pre-study standard curve was analyzed to determine the specificity, range, and lower limit of quantitation of the method. Plasma and tissue homogenate study samples were extracted and analyzed. All the samples were treated identically to the standards.
One eight-point standard curve was used in each analytical batch. To be accepted, each batch must have had at least five of eight standards with accuracy within ±20% of nominal, except at the lower limit of quantification (LLOQ), where ±25% was acceptable.
Concentration versus time data is plotted in FIGS. 3-16. All data are expressed as ng/g of the free drug. Samples that were below the limit of quantitation (0.2 ng/mL) were not used in the calculation of averages.

[1] = Group 1 topical ocular 1.2 mg/eye, 2.0 hr
[2] = Group 1 topical ocular 1.2 mg/eye, 4.0 hr
[3] = Group 2 subcutaneous 5 mg/kg, 0.5 hr
[4] = Group 2 subcutaneous 5 mg/kg, 1.0 hr
[5] = Group 2 subcutaneous 5 mg/kg, 2.0 hr
[6] = Group 2 subcutaneous 5 mg/kg, 4.0 hr
[7] = Group 4 intravitreal 2.5 mg per eye, 6.0 hr
[8] = Group 4 intravitreal 2.5 mg per eye, 24 hr
[9] = Group 4 intravitreal 2.5 mg per eye, 48 hr
[10] = Group 4 intravitreal 2.5 mg per eye, 72 hr

Average Peak Concentration, Vitreous Humor (Group 1 topical ocular 0.70 mg/kg/dose): 0.61 ng/g
aqueous humor Conc., individual eyes (OD, OS) (Group 1 topical ocular 1.2 mg/eye, 0.5 hr): 3.44 ng/mL and 1.78 ng/mL and 12.8 ng/mL
aqueous humor Conc., individual eyes (OD, OS) (Group 1 topical ocular 1.2 mg/eye, 1.0 hr): 3.55 ng/mL and 3.05 ng/mL
aqueous humor Conc., individual eyes (OD, OS) [1]: 2.46 ng/mL and 14.5 ng/mL and 15.8 ng/mL
vitreous humor Conc., individual eyes (OD, OS) [1]: 1.14 ng/mL and 0.950 ng/mL
Average Peak Concentration, Vitreous Humor (Group 2 subcutaneous 5 mg/kg/dose): 0.83 ng/g
aqueous humor Conc., individual eyes (OD, OS) [5]: 0.498 ng/mL and 0.453 ng/mL
aqueous humor Conc., individual eyes (OD, OS) [8]: 5190 ng/mL and 6810 ng/mL
aqueous humor Conc., individual eyes (OD, OS) [9]: 1510 ng/mL and 2330 ng/mL and 1970 ng/mL
concentration at 6 hr (New Zealand White, rabbit, aqueous humor, other: intravitreal, 2.5 mg per eye, Group 4 intravitreal 2.5 mg per eye, 6.0 hr, read-out: aqueous humor Average Conc.): 80600 ng/g
concentration at 6 hr (New Zealand White, rabbit, aqueous humor, other: intravitreal, 2.5 mg per eye, Group 4 intravitreal 2.5 mg per eye, 6.0 hr, read-out: aqueous humor Conc., individual eyes (OD, OS)): 90600 ng/mL
concentration at 24 hr (New Zealand White, rabbit, aqueous humor, other: intravitreal, 2.5 mg per eye, Group 4 intravitreal 2.5 mg per eye, 24 hr, read-out: aqueous humor Average Conc.): 9000 ng/g
concentration at 24 hr (New Zealand White, rabbit, aqueous humor, other: intravitreal, 2.5 mg per eye, Group 4 intravitreal 2.5 mg per eye, 24 hr, read-out: aqueous humor Conc., individual eyes (OD, OS)): 4700 ng/mL
concentration at 48 hr (New Zealand White, rabbit, aqueous humor, other: intravitreal, 2.5 mg per eye, Group 4 intravitreal 2.5 mg per eye, 48 hr, read-out: aqueous humor Average Conc.): 1960 ng/g
concentration at 48 hr (New Zealand White, rabbit, aqueous humor, other: intravitreal, 2.5 mg per eye, Group 4 intravitreal 2.5 mg per eye, 48 hr, read-out: aqueous humor Conc., individual eyes (OD, OS)): 2040 ng/mL
concentration at 72 hr (New Zealand White, rabbit, aqueous humor, other: intravitreal, 2.5 mg per eye, Group 4 intravitreal 2.5 mg per eye, 72 hr, read-out: aqueous humor Average Conc.): 34.5 ng/g
concentration at 0.5 h (New Zealand White, rabbit, aqueous humor, subcutaneous, 5 mg/kg, Group 2 subcutaneous 5 mg/kg, 0.5 hr, read-out: aqueous humor Average Conc.): 26.1 ng/g
concentration at 1 h (New Zealand White, rabbit, aqueous humor, subcutaneous, 5 mg/kg, Group 2 subcutaneous 5 mg/kg, 1.0 hr, read-out: aqueous humor Average Conc.): 3.3 ng/g
concentration at 2 h (New Zealand White, rabbit, aqueous humor, subcutaneous, 5 mg/kg, Group 2 subcutaneous 5 mg/kg, 2.0 hr, read-out: aqueous humor Average Conc.): 0.72 ng/g
concentration at 2 h (New Zealand White, rabbit, aqueous humor, subcutaneous, 5 mg/kg, Group 2 subcutaneous 5 mg/kg, 2.0 hr, read-out: aqueous humor Conc., individual eyes (OD, OS)): 0.581 ng/mL
concentration at 0.5 hr (New Zealand White, rabbit, aqueous humor, topical, 1.2 mg/eye, Group 1 topical ocular 1.2 mg/eye, 0.5 hr, read-out: aqueous humor Average Conc.): 45.8 ng/g
concentration at 1 hr (New Zealand White, rabbit, aqueous humor, topical, 1.2 mg/eye, Group 1 topical ocular 1.2 mg/eye, 1.0 hr, read-out: aqueous humor Average Conc.): 15 ng/g
concentration at 1 hr (New Zealand White, rabbit, aqueous humor, topical, 1.2 mg/eye, Group 1 topical ocular 1.2 mg/eye, 1.0 hr, read-out: aqueous humor Conc., individual eyes (OD, OS)): 4.03 ng/mL
concentration at 2 h (New Zealand White, rabbit, aqueous humor, topical, 1.2 mg/eye, Group 1 topical ocular 1.2 mg/eye, 2.0 hr, read-out: aqueous humor Average Conc.): 31.6 ng/g
SMILES: COC(=O)N[C@@H](Cc1ccccc1)C(=O)N[C@@H](Cc1ccc(NS(=O)(=O)O)cc1)c1csc(-c2cccs2)n1 [Compound 1 sodium salt]
aqueous humor Conc., individual eyes (OD, OS) [2]: 5.48 ng/mL and 5.61 ng/mL and 7.78 ng/mL and 14.1 ng/mL
vitreous humor Conc., individual eyes (OD, OS) [2]: 1.09 ng/mL and 2.20 ng/mL and 0.551 ng/mL
aqueous humor Conc., individual eyes (OD, OS) [3]: 23.5 ng/mL and 24.6 ng/mL and 18.0 ng/mL and 38.2 ng/mL
vitreous humor Conc., individual eyes (OD, OS) [3]: 1.03 ng/mL and 0.537 ng/mL and 0.981 ng/mL
aqueous humor Conc., individual eyes (OD, OS) [4]: 4.51 ng/mL and 1.84 ng/mL and 3.22 ng/mL and 3.63 ng/mL
vitreous humor Conc., individual eyes (OD, OS) [4]: 0.252 ng/mL and 0.766 ng/mL and 0.442 ng/mL and 0.337 ng/mL
vitreous humor Conc., individual eyes (OD, OS) [5]: BLOQ (Below the limit of quantitation (0.2 ng/mL))
aqueous humor Conc., individual eyes (OD, OS) [6]: BLOQ (Below the limit of quantitation (0.2 ng/mL))
vitreous humor Conc., individual eyes (OD, OS) [6]: BLOQ (Below the limit of quantitation (0.2 ng/mL))
aqueous humor Conc., individual eyes (OD, OS) [7]: 77100 ng/mL and 75300 ng/mL and 79300 ng/mL
vitreous humor Conc., individual eyes (OD, OS) [7]: 1450000 ng/mL and 1480000 ng/mL and 432000 ng/mL
vitreous humor Conc., individual eyes (OD, OS) [8]: 295000 ng/mL and 406000 ng/mL and 259000 ng/mL
vitreous humor Conc., individual eyes (OD, OS) [9]: 82300 ng/mL and 68600 ng/mL and 91900 ng/mL
aqueous humor Conc., individual eyes (OD, OS) [10]: 23.2 ng/mL and 16.1 ng/mL and 49.7 ng/mL and 49.0 ng/mL
vitreous humor Conc., individual eyes (OD, OS) [10]: 13500 ng/mL and 11700 ng/mL and 14100 ng/mL

Source: patent US11666558B2, “Methods of treating intraocular pressure with activators of Tie-2” (EyePoint Pharmaceuticals, Inc., priority 2015, dated 2023)
